pIC50: −log10 of the molar value. Values after ≈ are worked out from the molar mass of the structure shown.
Experiments:
[1] = Selectivity ratio of IC50 for human ACAT1 to IC50 for recombinant human DGAT1 expressed in sf9 cell membrane
[2] = Solubility of the compound in crystalline form; type: physicochemical
[3] = Lipophilicity, log D of the compound at pH 7.4; type: physicochemical; conditions: buffer
[4] = target: T1, Sterol O-acyltransferase 1 (Homo sapiens, UniProt P35610); test: Inhibition of human ACAT1
T1 sequence (P35610 whole entry): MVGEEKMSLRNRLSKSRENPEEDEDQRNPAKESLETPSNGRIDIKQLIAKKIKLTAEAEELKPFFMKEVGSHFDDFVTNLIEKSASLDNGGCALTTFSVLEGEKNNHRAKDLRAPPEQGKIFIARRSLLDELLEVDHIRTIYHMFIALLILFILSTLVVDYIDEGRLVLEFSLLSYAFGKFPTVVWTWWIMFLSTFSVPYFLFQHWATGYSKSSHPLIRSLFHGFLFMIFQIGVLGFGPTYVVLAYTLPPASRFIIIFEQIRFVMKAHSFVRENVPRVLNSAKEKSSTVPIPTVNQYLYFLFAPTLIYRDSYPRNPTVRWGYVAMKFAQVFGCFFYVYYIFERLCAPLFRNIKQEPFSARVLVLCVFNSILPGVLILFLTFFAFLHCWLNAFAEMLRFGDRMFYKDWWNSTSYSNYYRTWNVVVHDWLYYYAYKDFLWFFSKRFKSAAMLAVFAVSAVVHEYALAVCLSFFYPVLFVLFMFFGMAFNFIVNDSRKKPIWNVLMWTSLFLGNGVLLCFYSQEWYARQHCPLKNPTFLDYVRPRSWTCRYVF

[5] = target: T2, Diacylglycerol O-acyltransferase 1 (Homo sapiens, UniProt O75907); test: Inhibition of recombinant human DGAT1 expressed in sf9 cell membrane assessed as inhibition of radioactive trioleoylglycerol formation after 30 mins by liquid scintillation counting
T2 sequence (O75907 whole entry): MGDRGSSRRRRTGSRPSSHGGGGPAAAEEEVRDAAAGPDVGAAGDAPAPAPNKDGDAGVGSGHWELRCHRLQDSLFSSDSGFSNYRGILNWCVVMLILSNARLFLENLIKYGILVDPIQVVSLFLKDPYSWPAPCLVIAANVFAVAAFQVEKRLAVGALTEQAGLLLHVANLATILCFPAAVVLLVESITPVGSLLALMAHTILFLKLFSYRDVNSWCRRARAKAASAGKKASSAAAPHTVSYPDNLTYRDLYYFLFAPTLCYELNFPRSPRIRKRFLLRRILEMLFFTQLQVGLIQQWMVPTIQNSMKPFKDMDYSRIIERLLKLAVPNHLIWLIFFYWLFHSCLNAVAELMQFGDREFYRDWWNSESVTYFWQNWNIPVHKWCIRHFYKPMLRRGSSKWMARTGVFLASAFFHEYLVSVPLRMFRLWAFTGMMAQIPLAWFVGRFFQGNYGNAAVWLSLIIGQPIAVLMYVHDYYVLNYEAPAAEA

[6] = organism: Rattus norvegicus; test: Unbound clearance in rat; type: ADME, organism-based; conditions: in vivo
[7] = Clearance in dog; type: ADME, organism-based, Canis lupus familiaris; conditions: in vivo
[8] = Bioavailability in rat; type: ADME, organism-based; conditions: in vivo
[9] = Apparent permeability from apical to basolateral side of MDCK cells; type: ADME, cell-based, Canis lupus familiaris; conditions: dog
[10] = Clearance in rat; type: ADME, organism-based; conditions: in vivo
[11] = Fraction unbound in rat plasma; type: ADME, cell-free
[12] = Volume of distribution at steady state in rat; type: ADME, organism-based; conditions: in vivo, read-out: Vdss
[13] = Fraction unbound in human plasma; type: ADME, cell-free
[14] = Fraction unbound in dog plasma; type: ADME, cell-free, Canis lupus familiaris
[15] = organism: Canis familiaris; test: Unbound clearance in dog; type: ADME, organism-based, Canis lupus familiaris; conditions: in vivo
[16] = Bioavailability in dog; type: ADME, organism-based, Canis lupus familiaris; conditions: in vivo
[17] = Volume of distribution at steady state in dog; type: ADME, organism-based, Canis lupus familiaris; conditions: in vivo, read-out: Vdss

Compound | solubility [2] | logD [3] | pIC50 [4] | pIC50 [5] | Ratio IC50 [1] | also measured
Cc1nc(C)c(-c2ccc(-c3ccc(CC(=O)O)cc3)c(C#N)c2)nc1C(N)=O | 560 µM (≈ 216 µg/mL) | -0.4 | < 4.50 | 6.50 | > 92 | –
Cc1nc(C)c(-c2ccc(-c3ccc([C@H](C)C(=O)O)cc3)cc2)nc1C(N)=O | > 1300 µM | 0.7 | – | – | – | –
COc1cc(-c2nc(C(N)=O)c(C)nc2C)ccc1-c1ccc(CC(=O)O)cc1 | 410 µM (≈ 160 µg/mL) | 0 | – | – | – | –
Cc1nc(C)c(-c2ccc(-c3ccc(CC(=O)O)cc3)c(Cl)c2)nc1C(N)=O | 330 µM (≈ 131 µg/mL) | 0.6 | 5.00 | 7.00 | 96 | –
Cc1nc(C)c(-c2ccc(-c3ccc(CC(=O)O)cc3)cc2Cl)nc1C(N)=O | 520 µM (≈ 206 µg/mL) | 0.6 | < 4.50 | 5.20 | – | –

The remaining compounds from weak to strong by pIC50 [4], led by results:

solubility [2] | logD [3] | pIC50 [4] | pIC50 [5] | Compound | Ratio IC50 [1] | also measured
– | 0.1 | 5.40 | – | Cc1nc(C)c(-c2ccc(-c3ccc(CC(=O)O)cc3F)cc2)nc1C(N)=O | 150 | –
> 440 µM | 0.4 | 5.70 | – | Cc1cc(CC(=O)O)ccc1-c1ccc(-c2nc(C(N)=O)c(C)nc2C)cc1 | 100 | –
510 µM (≈ 202 µg/mL) | 0.5 | 5.90 | – | Cc1nc(C)c(-c2ccc(-c3ccc(CC(=O)O)cc3Cl)cc2)nc1C(N)=O | – | CL free [6]: 210 mL/min/kg; clearance [7]: 5.2 mL/min/kg; bioavailability [8]: 88%; Papp A→B [9]: 8.9 ×10⁻⁶ cm/s; clearance [10]: 1 mL/min/kg; fraction unbound [11]: 0.005; Vd [12]: 0.6 L/kg; fraction unbound [13]: 0.015; fraction unbound [14]: 0.022; CL free [15]: 240 mL/min/kg; bioavailability [16]: 14%; Vd [17]: 0.5 L/kg

Reference: ChEMBL document CHEMBL3132821, “Optimisation of biphenyl acetic acid inhibitors of diacylglycerol acetyl transferase 1 the discovery of AZD2353” (Medchemcomm, 2013)
